Results: PubChem BioAssay (NCI)
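Cultured in 96-well plates, cells were exposed to test compound for 48 hours across five concentrations. GI50 marks 50% less growth. TGI denotes the concentration required for complete inhibition of growth.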

How the values were obtained:
Assay in all cases: NCI tumour cell line growth inhibition, 48 h
HCC-2998 colon = system: HCC-2998 colon
HCT-116 colon = system: HCT-116 colon
HT29 colon = system: HT29 colon
LOX IMVI melanoma = system: LOX IMVI melanoma
SF-268 CNS = system: SF-268 CNS
SF-539 CNS = system: SF-539 CNS
SK-MEL-2 melanoma = system: SK-MEL-2 melanoma
SK-OV-3 ovarian = system: SK-OV-3 ovarian
SN12C renal = system: SN12C renal
U251 CNS = system: U251 CNS

O=C(O)c1cc(C(=O)C(=O)c2cc(C(=O)O)c(O)c3ccccc23)c2ccccc2c1O
TGI (HCC-2998 colon): > 100 µM
TGI (HCT-116 colon): > 100 µM
TGI (HT29 colon): > 100 µM
TGI (LOX IMVI melanoma): > 100 µM
TGI (SF-268 CNS): > 100 µM
TGI (SF-539 CNS): > 100 µM
TGI (SK-MEL-2 melanoma): > 100 µM
TGI (SK-OV-3 ovarian): > 100 µM
TGI (SN12C renal): > 100 µM
TGI (U251 CNS): > 100 µM

CC12OC(C(=O)C13CC3)C1C(=O)c3cccc(O)c3C(=O)C12 (stereo not drawn)
GI50 (HCC-2998 colon): 18.5 µM
TGI (HCC-2998 colon): 46.7 µM
GI50 (HCT-116 colon): 4.31 µM
TGI (HCT-116 colon): 6.42 µM
GI50 (HT29 colon): 10.6 µM
TGI (HT29 colon): > 100 µM
GI50 (LOX IMVI melanoma): 5.1 µM
TGI (LOX IMVI melanoma): > 100 µM
GI50 (SF-268 CNS): 6.08 µM
TGI (SF-268 CNS): > 68.5 µM
GI50 (SF-539 CNS): 5.36 µM
TGI (SF-539 CNS): > 56.1 µM
GI50 (SK-MEL-2 melanoma): 47.3 µM
TGI (SK-MEL-2 melanoma): > 100 µM
GI50 (SK-OV-3 ovarian): 22.9 µM
TGI (SK-OV-3 ovarian): > 75.3 µM
GI50 (SN12C renal): 4.96 µM
TGI (SN12C renal): 18.9 µM
GI50 (U251 CNS): 8.29 µM
TGI (U251 CNS): > 58.8 µM

COC(=O)Nc1nc2ccc(C(=O)C3CC3)cc2[nH]1
GI50 (HCC-2998 colon): 0.771 µM
GI50 (HCT-116 colon): 0.438 µM
GI50 (HT29 colon): 0.295 µM
TGI (HT29 colon): 6.31 µM
GI50 (LOX IMVI melanoma): 0.72 µM
TGI (LOX IMVI melanoma): > 100 µM
GI50 (SF-268 CNS): 0.573 µM
TGI (SF-268 CNS): 31.3 µM
GI50 (SF-539 CNS): 0.311 µM
TGI (SF-539 CNS): 3.06 µM
GI50 (SK-MEL-2 melanoma): 3.31 µM
TGI (SK-MEL-2 melanoma): > 70.1 µM
GI50 (SK-OV-3 ovarian): 0.412 µM
TGI (SK-OV-3 ovarian): > 62 µM
GI50 (SN12C renal): 0.717 µM
TGI (SN12C renal): > 100 µM
GI50 (U251 CNS): 0.426 µM
TGI (U251 CNS): > 100 µM

COC(=O)CCC(=O)C(CC(=O)OC)C(=O)CCC(=O)NCCc1ccccc1 (stereo not drawn)
TGI (HCC-2998 colon): > 100 µM
TGI (HCT-116 colon): > 100 µM
TGI (HT29 colon): > 100 µM
TGI (LOX IMVI melanoma): > 100 µM
TGI (SF-268 CNS): > 100 µM
TGI (SF-539 CNS): > 100 µM
TGI (SK-MEL-2 melanoma): > 100 µM
TGI (SK-OV-3 ovarian): > 100 µM
TGI (SN12C renal): > 100 µM
TGI (U251 CNS): > 100 µM

OC1CCC(COC(c2ccccc2)(c2ccccc2)c2ccccc2)O1 (stereo not drawn)
TGI (HCC-2998 colon): 35.6 µM
TGI (HCT-116 colon): 30.4 µM
TGI (HT29 colon): 33.7 µM
TGI (LOX IMVI melanoma): 34.3 µM
TGI (SF-268 CNS): 33.6 µM
TGI (SF-539 CNS): 32.5 µM
TGI (SK-MEL-2 melanoma): 42.6 µM
TGI (SK-OV-3 ovarian): 36.6 µM
TGI (SN12C renal): 38.6 µM
TGI (U251 CNS): 36 µM

O=C1/C(=C\c2ccc(Cl)cc2)CN(C(=O)c2ccccc2)C/C1=C\c1ccc(Cl)cc1
GI50 (HCC-2998 colon): 2.03 µM
TGI (HCC-2998 colon): 3.97 µM
GI50 (HCT-116 colon): 0.337 µM
TGI (HCT-116 colon): 1.04 µM
GI50 (HT29 colon): 1.66 µM
TGI (HT29 colon): 5 µM
GI50 (LOX IMVI melanoma): 0.771 µM
TGI (LOX IMVI melanoma): 2.26 µM
GI50 (SF-268 CNS): 3.74 µM
TGI (SF-268 CNS): 17.5 µM
GI50 (SF-539 CNS): 2.15 µM
TGI (SF-539 CNS): 5.13 µM
GI50 (SK-MEL-2 melanoma): 16.8 µM
TGI (SK-MEL-2 melanoma): 71.2 µM
GI50 (SK-OV-3 ovarian): 4.64 µM
TGI (SK-OV-3 ovarian): 32.3 µM
GI50 (SN12C renal): 2.16 µM
TGI (SN12C renal): 5.4 µM
GI50 (U251 CNS): 1.57 µM
TGI (U251 CNS): 3.26 µM

COC(=O)C(=O)C(C(=O)C(=O)Nc1ccccc1C(N)=O)c1nc2ccc([N+](=O)[O-])cc2[nH]c1=O (stereo not drawn)
TGI (HCC-2998 colon): > 100 µM
TGI (HCT-116 colon): > 100 µM
TGI (HT29 colon): > 100 µM
TGI (LOX IMVI melanoma): > 100 µM
TGI (SF-268 CNS): > 100 µM
TGI (SF-539 CNS): > 100 µM
TGI (SK-MEL-2 melanoma): > 100 µM
TGI (SK-OV-3 ovarian): > 100 µM
TGI (SN12C renal): > 100 µM
TGI (U251 CNS): > 100 µM
